Laboratory results: patent publication US20020193425A1, “Cancer chemopreventative compounds and compositions and methods of treating cancers” (priority 2001, published 2002)

Tests used:
K562 [1] = assay: NBT-reduction differentiation assay, leukemic panel; assay type: cell-based; conditions: 4 days
Protocol: Cell lines were tested using a 4-day incubation protocol, unless otherwise specified.
2) NBT/NSE/SE. Evaluation of NBT reduction was used to assess the ability of sample-treated cells to produce superoxide when challenged with TPA. A 1:1 (v/v) mixture of a cell suspension (10^6 cells) and TPA/NBT solution (2 mg/ml NBT and 1 μg/ml TPA in phosphate buffer saline (PBS)) was incubated for 1 h at 37° C. Then, cells were smeared on glass slides, and counterstained with 0.3% (w/v) safranin O in methanol. Positive cells reduce NBT yielding intracellular black-blue formazan deposits. NSE/SE are monocytic/granulocytic esterases that can be visualized by cytochemical staining using commercially available kits (α-Naphthyl Acetate Esterase and Naphthol As-D Chloroacetate Esterase kits, Sigma Chemical Co., St. Louis, Mo.). Positive-stained cells were quantified by microscopic examination of >200 cells. Results were expressed as a percentage of positive cells.
Concentration-dependent effect of brusatol on: (a) NBT-reduction (monocyte/granulocyte marker) of HL-60, K562, NB4, U937, and BV173 and (b) NSE expression (monocyte marker) in K562, Kasumi-1, NB4, and BV173 cells, respectively. Data points are the mean of duplicate samples.

HL-60 = assay: Cell cycle effects, DNA content by flow cytometry; assay type: cell-based, human; conditions: Brusatol (25 ng/ml), 24 h
Protocol: (§1) About 10^6 cells from each sample were collected and washed twice with ice-cold PBS, fixed in 70% ethanol, and stored at 4° C. until analysis. The cells were stained with PI (50 μg/ml), treated with DNase-free RNase (10 μg/ml), and subjected to DNA content analysis using an EPICS Coulter flow cytometer. At least 10,000 cells were counted for each sample. The percentage of apoptotic cells was calculated by measuring the area under the sub-diploid (DNA <2 N) peak in the plot of cell number against cellular DNA content.
(§2) Cells were treated with solvent or brusatol (25 ng/ml) for 24 h, fixed in ethanol and stained with PI for flow cytometric analysis as described under “Materials and methods”. At least 10,000 cells were counted. Results are presented as the mean of triplicate samples (±standard deviation). G1=Gap1, S=Synthesis, G2/M=Gap2+Mitosis, Ap=sub-G1 apoptotic peak.

Kasumi-1 = assay: Cell cycle effects, DNA content by flow cytometry; assay type: cell-based; conditions: Brusatol (25 ng/ml), 24 h
Protocol: as §1, §2

RS4,11 = assay: Cell cycle effects, DNA content by flow cytometry; assay type: cell-based; conditions: Brusatol (25 ng/ml), 24 h
Protocol: as §1, §2

Reh = assay: Cell cycle effects, DNA content by flow cytometry; assay type: cell-based; conditions: Brusatol (25 ng/ml), 24 h
Protocol: as §1, §2

U937 = assay: Cell cycle effects, DNA content by flow cytometry; assay type: cell-based; conditions: Brusatol (25 ng/ml), 24 h
Protocol: as §1, §2

BV173 = assay: Cell cycle effects, DNA content by flow cytometry; assay type: cell-based; conditions: Brusatol (25 ng/ml), 24 h
Protocol: as §1, §2

SUPB13 = assay: Cell cycle effects, DNA content by flow cytometry; assay type: cell-based; conditions: Brusatol (25 ng/ml), 24 h
Protocol: as §1, §2

K562 [2] = assay: Cell cycle effects, DNA content by flow cytometry; assay type: cell-based; conditions: Brusatol (25 ng/ml), 24 h
Protocol: as §1, §2

NB4 = assay: Cell cycle effects, DNA content by flow cytometry; assay type: cell-based; conditions: Brusatol (25 ng/ml), 24 h
Protocol: as §1, §2

Question: Which “NBT-reduction, peak induction” value (K562 [1]) does the source give for `COC(=O)[C@@]12OC[C@]34[C@H]([C@@H](O)[C@@H]1O)[C@@]1(C)CC(=O)C(O)=C(C)[C@@H]1C[C@H]3OC(=O)[C@H](OC(=O)C=C(C)C)[C@@H]24` [compound 1, brusatol] here?
Answer: 75%

Question: What about the G1 (HL-60) of the same molecule?
Answer: G1 = 68.7 ± 0.9

Question: What about the G2/M (HL-60) of the same molecule?
Answer: G2/M = 18.3 ± 1.1

Question: What about the S (HL-60) of the same molecule?
Answer: S = 13.0 ± 1.0

Question: What about the G1 (Kasumi-1) of the same molecule?
Answer: G1 = 77.4 ± 1.8

Question: And the G2/M (Kasumi-1)?
Answer: G2/M = 4.5 ± 0.2

Question: And the S (Kasumi-1)?
Answer: S = 18.1 ± 2.1

Question: What about the G1 (RS4,11) of the same molecule?
Answer: G1 = 50.9 ± 0.4

Question: And the G2/M (RS4,11)?
Answer: G2/M = 3.4 ± 0.1

Question: And the S (RS4,11)?
Answer: S = 45.7 ± 0.2

Question: What about the G1 (Reh) of the same molecule?
Answer: G1 = 78.8 ± 1.2

Question: And the G2/M (Reh)?
Answer: G2/M= 3.2 ± 0.4

Question: And the S (Reh)?
Answer: S = 18.0 ± 0.6

Question: What about the G1 (U937) of the same molecule?
Answer: G1 = 45.4 ± 1.8

Question: What about the G2/M (U937) of the same molecule?
Answer: G2/M = 8.0 ± 1.6

Question: What about the S (U937) of the same molecule?
Answer: S = 46.6 ± 0.2

Question: And the “Ap (sub-G1 apoptotic peak)” value (BV173)?
Answer: Ap = 15.6 ± 0.2

Question: And the G1 (BV173)?
Answer: G1 = 57.0 ± 0.4

Question: What about the G2/M (BV173) of the same molecule?
Answer: G2/M = 7.1 ± 0.1

Question: What about the S (BV173) of the same molecule?
Answer: S = 35.9 ± 0.6

Question: And the G1 (SUPB13)?
Answer: G1 = 61.9 ± 2.1

Question: And the G2/M (SUPB13)?
Answer: G2/M = 8.7 ± 0.3

Question: What about the S (SUPB13) of the same molecule?
Answer: S = 29.4 ± 1.8

Question: What about the G1 (K562 [2]) of the same molecule?
Answer: G1 = 46.2 ± 0.6

Question: What about the G2/M (K562 [2]) of the same molecule?
Answer: G2/M = 5.6 ± 0.4

Question: And the S (K562 [2])?
Answer: S = 48.2 ± 0.3

Question: What about the “Ap (sub-G1 apoptotic peak)” value (NB4) of the same molecule?
Answer: Ap = 37.2 ± 0.8

Question: What about the G1 (NB4) of the same molecule?
Answer: G1 = 45.3 ± 0.8

Question: What about the G2/M (NB4) of the same molecule?
Answer: G2/M = 7.3 ± 0.7

Question: And the S (NB4)?
Answer: S = 47.4 ± 0.1
